# Laboratory results as given in PMC10812557, “Progressive Design of a Ranatuerin-2 Peptide from Amolops wuyiensis: Enhancement of Bioactivity and In Vivo Efficacy” (Antibiotics, 2023).
# What was measured:
# Format in all cases: cell-based
# E. faecium (NTCC 12697) = assay: microbe, parasite or virus in culture; settings: E. faecium (NTCC 12697)
# Text: (§1) The MIC and MBC assays were used to assess the inhibitory activities of all 5 analogues of R2AW on the growth of planktonic microorganisms. The MIC is the lowest concentration that prevents the viable growth of bacteria. The MBC is the lowest concentration that results in bacterial death. Six microorganisms were used to detect the antimicrobial activity of peptides, including Gram-positive bacteria S. aureus (NCTC 10788), MRSA (NCTC 12493), Enterococcus faecalis (E. faecalis) (NCTC 12697), Gram-negative bacteria E. coli […], Klebsiella pneumoniae (K. pneumoniae) (ATCC 43816), and Pseudomonas aeruginosa (P. aeruginosa) (ATCC 9027). According to the assay described previously, the microorganisms were inoculated at 37 °C overnight and diluted to 5 × 10^5 CFU/mL after reaching the logarithmic growth period. The peptide stock solution at the concentration of 512 × 10^2 μM was prepared and diluted to 100 μM by a 2-fold dilution. One μL of each concentration of peptide solution was incubated with 99 μL of bacterial subculture in the 96-well plate for 18 h at 37 °C. The absorbance was determined at a wavelength of 550 nm using a Synergy HT plate reader (Bio Tek, Washington, DC, USA). […] As for those wells that were clearly visible, 20 μL of the solution was dropped onto the Mueller Hinton agar (MHA) dish and then incubated at 37 °C overnight. The lowest concentration with no colony growth was determined as the MBC.
# MRSA (NCTC 12493) = assay: microbe, parasite or virus in culture; settings: MRSA (NCTC 12493)
# Text: as §1
# S. aureus (NCTC 10788) = assay: microbe, parasite or virus in culture; settings: S. aureus (NCTC 10788)
# Text: as §1
# E. coli (ATCC 8739) = settings: E. coli (ATCC 8739)
# Text: as §1
# [1] = tested on: K. pneumoniae (ATCC 43816); settings: K. pneumoniae (ATCC 43816)
# Text: as §1
# [2] = tested on: P. aeruginosa (ATCC 9027); settings: P. aeruginosa (ATCC 9027)
# Text: as §1
structure (smiles),measurement,setting,value
"CC[C@H](C)[C@H](NC(=O)CN)C(=O)NCC(=O)N[C@@H](C)C(=O)N[C@H](C(=O)N[C@@H](CC(C)C)C(=O)N[C@@H](CCCCN)C(=O)N[C@H](C(=O)N[C@@H](CC(C)C)C(=O)N[C@H](C(=O)N[C@H](C(=O)NCC(=O)N[C@@H](CC(C)C)C(=O)N1CCC[C@H]1C(=O)N[C@@H](C)C(=O)N[C@@H](CC(C)C)C(=O)N[C@H](C(=O)N[C@@H](CO)C(=O)N[C@@H](Cc1c[nH]c2ccccc12)C(=O)N[C@H](C(=O)N[C@@H](CCCCN)C(=O)N[C@@H](CCCNC(=N)N)C(=O)N[C@@H](CCCCN)C(=O)N[C@@H](CCCNC(=N)N)C(=O)N[C@@H](CCC(N)=O)C(=O)N[C@@H](CCC(N)=O)C(N)=O)[C@@H](C)CC)[C@@H](C)CC)[C@@H](C)O)[C@@H](C)O)C(C)C)C(C)C [Melittin, reference compound]",MBC,E. faecium (NTCC 12697),2 µM
same,MIC,E. faecium (NTCC 12697),2 µM
same,MBC,MRSA (NCTC 12493),2 µM
same,MBC,S. aureus (NCTC 10788),2 µM
same,MBC,E. coli (ATCC 8739),4 µM
same,MBC,[1],32 µM
same,MIC,[1],32 µM
same,MBC,[2],32 µM
